Source: the NIST ThermoML archive (doi:10.1021/acs.jced.7b00148)
± gives the expanded uncertainty stated by the source.

Settings: Liquid; for vapor or sublimation pressure: Closed cell (Static) method; for Critical pressure: Direct measurement; for Critical temperature: Visual observation in an unstirred cell

SMILES: C=CCCC [1-pentene]
- vapor or sublimation pressure (297.86 K): 84 ± 2 kPa
- vapor or sublimation pressure (327.08 K): 216 ± 3 kPa
- vapor or sublimation pressure (336.14 K): 279 ± 3 kPa
- vapor or sublimation pressure (346.92 K): 372 ± 4 kPa
- vapor or sublimation pressure (356.19 K): 468 ± 4 kPa
- vapor or sublimation pressure (356.89 K): 474 ± 4 kPa
- vapor or sublimation pressure (366.77 K): 600 ± 5 kPa
- vapor or sublimation pressure (377.34 K): 757 ± 5 kPa
- vapor or sublimation pressure (387.42 K): 933 ± 6 kPa
- vapor or sublimation pressure (394.67 K): 1085 ± 7 kPa
- vapor or sublimation pressure (399.61 K): 1193 ± 7 kPa
- vapor or sublimation pressure (403.03 K): 1269 ± 8 kPa
- vapor or sublimation pressure (411.19 K): 1472 ± 9 kPa
- vapor or sublimation pressure (420.96 K): 1752 ± 10 kPa
- vapor or sublimation pressure (426.1 K): 1915 ± 11 kPa
- vapor or sublimation pressure (436.17 K): 2255 ± 12 kPa
- vapor or sublimation pressure (439.5 K): 2373 ± 13 kPa
- vapor or sublimation pressure (445.74 K): 2622 ± 14 kPa
- vapor or sublimation pressure (452.59 K): 2902 ± 15 kPa
- vapor or sublimation pressure (456.52 K): 3081 ± 16 kPa
- vapor or sublimation pressure (457.93 K): 3152 ± 16 kPa
- vapor or sublimation pressure (460.95 K): 3294 ± 17 kPa
- vapor or sublimation pressure (462.87 K): 3389 ± 17 kPa
- vapor or sublimation pressure (463.77 K): 3443 ± 18 kPa
- vapor or sublimation pressure (466.59 K): 3585 ± 18 kPa
- Critical pressure: 3585 ± 26 kPa
- Critical temperature: 466.59 ± 0.24 K

SMILES: C=C(C)CC [2-methyl-1-butene]
- vapor or sublimation pressure (299.27 K): 85 ± 2 kPa
- vapor or sublimation pressure (323.65 K): 190 ± 3 kPa
- vapor or sublimation pressure (341.18 K): 312 ± 3 kPa
- vapor or sublimation pressure (353.77 K): 431 ± 4 kPa
- vapor or sublimation pressure (366.06 K): 579 ± 5 kPa
- vapor or sublimation pressure (368.18 K): 608 ± 5 kPa
- vapor or sublimation pressure (375.63 K): 717 ± 5 kPa
- vapor or sublimation pressure (386.21 K): 898 ± 6 kPa
- vapor or sublimation pressure (398.5 K): 1149 ± 7 kPa
- vapor or sublimation pressure (409.28 K): 1402 ± 8 kPa
- vapor or sublimation pressure (419.65 K): 1695 ± 10 kPa
- vapor or sublimation pressure (429.02 K): 1985 ± 11 kPa
- vapor or sublimation pressure (431.24 K): 2065 ± 11 kPa
- vapor or sublimation pressure (438.39 K): 2316 ± 13 kPa
- vapor or sublimation pressure (448.46 K): 2723 ± 14 kPa
- vapor or sublimation pressure (457.43 K): 3118 ± 16 kPa
- vapor or sublimation pressure (460.55 K): 3271 ± 17 kPa
- vapor or sublimation pressure (463.37 K): 3409 ± 17 kPa
- vapor or sublimation pressure (465.49 K): 3523 ± 18 kPa
- vapor or sublimation pressure (467.9 K): 3652 ± 19 kPa
- Critical pressure: 3652 ± 26 kPa
- Critical temperature: 467.9 ± 0.24 K

SMILES: CC=C(C)C [2-methyl-2-butene]
- vapor or sublimation pressure (307.63 K): 87 ± 2 kPa
- vapor or sublimation pressure (325.06 K): 157 ± 3 kPa
- vapor or sublimation pressure (340.98 K): 249 ± 3 kPa
- vapor or sublimation pressure (350.14 K): 321 ± 3 kPa
- vapor or sublimation pressure (364.85 K): 463 ± 4 kPa
- vapor or sublimation pressure (372.91 K): 560 ± 5 kPa
- vapor or sublimation pressure (380.97 K): 673 ± 5 kPa
- vapor or sublimation pressure (389.83 K): 811 ± 6 kPa
- vapor or sublimation pressure (397.89 K): 954 ± 6 kPa
- vapor or sublimation pressure (408.17 K): 1167 ± 7 kPa
- vapor or sublimation pressure (422.67 K): 1524 ± 9 kPa
- vapor or sublimation pressure (430.83 K): 1758 ± 10 kPa
- vapor or sublimation pressure (439.09 K): 2021 ± 11 kPa
- vapor or sublimation pressure (448.36 K): 2349 ± 13 kPa
- vapor or sublimation pressure (453.3 K): 2541 ± 14 kPa
- vapor or sublimation pressure (454.71 K): 2600 ± 14 kPa
- vapor or sublimation pressure (461.46 K): 2884 ± 15 kPa
- vapor or sublimation pressure (464.08 K): 3006 ± 16 kPa
- vapor or sublimation pressure (470.72 K): 3327 ± 17 kPa
- vapor or sublimation pressure (471.73 K): 3377 ± 17 kPa
- vapor or sublimation pressure (473.04 K): 3442 ± 18 kPa
- vapor or sublimation pressure (475.16 K): 3556 ± 18 kPa
- vapor or sublimation pressure (477.47 K): 3686 ± 19 kPa
- Critical pressure: 3686 ± 26 kPa
- Critical temperature: 477.47 ± 0.24 K

SMILES: C=CC(C)C [3-methyl-1-butene]
- vapor or sublimation pressure (302.9 K): 140 ± 3 kPa
- vapor or sublimation pressure (323.75 K): 264 ± 3 kPa
- vapor or sublimation pressure (336.44 K): 374 ± 4 kPa
- vapor or sublimation pressure (350.65 K): 533 ± 4 kPa
- vapor or sublimation pressure (358.2 K): 635 ± 5 kPa
- vapor or sublimation pressure (371.6 K): 855 ± 6 kPa
- vapor or sublimation pressure (382.88 K): 1073 ± 7 kPa
- vapor or sublimation pressure (390.84 K): 1255 ± 8 kPa
- vapor or sublimation pressure (399 K): 1458 ± 9 kPa
- vapor or sublimation pressure (405.25 K): 1632 ± 9 kPa
- vapor or sublimation pressure (413.2 K): 1874 ± 11 kPa
- vapor or sublimation pressure (420.56 K): 2113 ± 12 kPa
- vapor or sublimation pressure (431.03 K): 2509 ± 13 kPa
- vapor or sublimation pressure (439.9 K): 2885 ± 15 kPa
- vapor or sublimation pressure (445.14 K): 3138 ± 16 kPa
- vapor or sublimation pressure (447.76 K): 3260 ± 17 kPa
- vapor or sublimation pressure (450.48 K): 3407 ± 18 kPa
- vapor or sublimation pressure (451.38 K): 3463 ± 18 kPa
- Critical pressure: 3463 ± 26 kPa
- Critical temperature: 451.38 ± 0.24 K
